Test results published in patent US20110065632A1, “PHARMACEUTICAL COMPOSITIONS OF SOMATOSTATIN-DOPAMINE CONJUGATES” (priority 2008, published 2011).
Numbered stars: 1 amine (or outer) side, 2 acyl side, 3 side chain; on linkers, the order of the positions; unused ones are H or OH. Bridge positions count the residues as written; N and C are the ends. Square brackets hold non-standard residues; d marks the D form. Peptide text beside a SMILES is read from it. * marks the point of attachment. X3 = CCCN1C[C@H](CSCC(=O)Oc2ccc(C[C@H](N[*:1])C(=O)[*:2])cc2I)C[C@@H]2c3cccc4[nH]cc(c34)C[C@H]21; X1 = CCCN1C[C@H](CSCC(=O)*)C[C@@H]2c3cccc4[nH]cc(c34)C[C@H]21; AEEA = NCCOCCOCC(=O)O

Columns and labels:
hsst1 = molecular target: T1, hsst1 (Homo sapiens, UniProt P30872); assay: Somatostatin receptor radioligand binding assay, hsst1; conditions: CHO-K1 membranes, [125I-Tyr11]SS-14; read-out: hsst1 Ki
T1 construct: expressed in transfected cells
T1 sequence (P30872 whole entry): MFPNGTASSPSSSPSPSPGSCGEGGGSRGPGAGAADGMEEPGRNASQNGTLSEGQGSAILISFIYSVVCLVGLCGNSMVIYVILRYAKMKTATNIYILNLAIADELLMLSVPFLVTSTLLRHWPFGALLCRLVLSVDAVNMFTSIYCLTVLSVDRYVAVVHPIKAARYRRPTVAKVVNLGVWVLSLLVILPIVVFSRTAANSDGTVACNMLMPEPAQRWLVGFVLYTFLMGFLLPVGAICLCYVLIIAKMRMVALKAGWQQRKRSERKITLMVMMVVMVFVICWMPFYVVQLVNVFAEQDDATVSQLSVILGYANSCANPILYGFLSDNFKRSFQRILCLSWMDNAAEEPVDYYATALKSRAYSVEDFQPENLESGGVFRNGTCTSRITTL
Method: (§1) Specificity and selectivity of the somatostatin analogues used to synthesize the somatostatin-dopamine chimers were determined by a radioligand binding assay on CHO-K1 cells stably transfected with each of the SSTR subtypes, as follows. Somatostatin analogs are also described in U.S. Patent Application Publication No. 02210006790. The complete coding sequences of genomic fragments of the SSTR 1 (e.g., Genbank accession No. M81829), SSTR 2 (e.g., Genbank accession No. M81830), SSTR 3 (e.g., Genbank accession No. L07062), and SSTR 4 (e.g., Genbank accession No. AL049651) genes and a cDNA clone for SSTR 5 (e.g., Genbank accession No. D16827) was subcloned into the mammalian expression vector pCMV (Life Technologies, Milano, Italy). Other SSTR sequences are known to the skilled artisan. Clonal cell lines stably expressing SSTR's 1-5 were obtained by transfection into CHO-K1 cells (ATCC, Manassas, Va., USA) using the calcium phosphate co-precipitation method (Davis L, et al., 1994 In: Basic methods in Molecular Biology, 2nd edition, Appleton & Lange, Norwalk, Conn., USA: 611-646). The plasmid pRSV-neo (ATCC) was included as a selectable marker. Clonal cell lines were selected in RPMI 1640 media containing 0.5 mg/mL of G418 (Life Technologies, Milano, Italy), ring cloned, and expanded into culture.
(§2) Membranes for in vitro receptor binding assays were obtained by homogenizing the CHO-K1 cells expressing the SSTR's subtypes in ice-cold 50 mM Tris-HCl and centrifuging twice at 39,000 g (10 min), with an intermediate resuspension in fresh buffer. The final pellets were resuspended in 10 mM Tris-HCl for assay.
(§3) For the SSTR 1, 3, 4, and 5 assays, aliquots of the membrane preparations were incubated 90 minutes at 25° C. with 0.05 nM [^125I-Tyr11]SS-14 in 50 mM HEPES (pH 7.4) containing 10 mg/mL BSA, 5 mM MgCl2, 200 KIU/mL Trasylol, 0.02 mg/mL bacitracin, and 0.02 mg/mL phenylmethylsuphonyl fluoride. The final assay volume was 0.3 mL.
(§4) For the SSTR 2 assay, 0.05 nM [^125I]MK-678 was employed as the radioligand and the incubation time was 90 minutes at 25° C. The incubations were terminated by rapid filtration through GF/C glass microfiber filters (Whatman Co.) (pre-soaked in 0.3% polyethylenimine) using a BRANDEL filtration manifold. Each tube and filter was washed three times with 5 mL aliquots of ice-cold buffer. Specific binding was defined as the total radioligand bound minus that bound in the presence of 1000 nM SS-14 for SSTR 1, 3, 4, and 5, or 1000 nM MK-678 for SSTR2.
(§5) Using the discussed assays, the inhibition constants (Ki) for the five human somatostatin receptors (hSSTR1-hSSTR5) and the dopamine-2 receptor (hUTII and hDA2) were measured for the exemplified somatostatin-dopamine conjugates, as follows: […]

hDA2 = assay: Dopamine-2 receptor radioligand binding assay; parameters: species or system human; conditions: [3H]spiperone
Method: Specificity and selectivity for the dopamine-2 receptor of the dopamine analogues used to synthesize the somatostatin-dopamine chimers may be determined by a radioligand binding assay as follows.
Crude membranes were prepared by homogenization of frozen rat corpus striatum (Zivic Laboratories, Pittsburgh, Pa., USA) in 20 mL of ice-cold 50 mM Tris-HCl with a Brinkman Polytron cell disrupter (setting 6, 15 sec). Buffer was added to obtain a final volume of 40 mL, and the homogenate was centrifuged in a Sorval SS-34 rotor at 39,000 g for 10 minutes at 0-4° C. The resulting supernatant was decanted and discarded. The pellet was rehomogenized in ice-cold buffer, pre-incubated at 37° C. for 10 min, diluted, and centrifuged as before. The final pellet was resuspended in buffer and held on ice for the receptor binding assay.
For assay, aliquots of the washed membrane preparations and test compounds were incubated for 15 minutes (37° C.) with 0.25 nM [^3HI]spiperone (16.5 Ci.mmol, New England Nuclear, Boston, Mass., USA) in 50 mM Tris HCl, 120 mM NaCl, 5 mM KCl, 2 mM CaCl2, 1 mM MgCl2. The final assay volume was 1.0 mL. The incubations were terminated by rapid filtration through GF/B glass fibre filters using a Brandel filtration manifold. Each tube and filter was then washed three times with 5-mL aliquots of ice-cold buffer. Specific binding was defined as the total radioligand bound minus that bound in the presence of 1000 nM (+) butaclamol.
as §5

hUTII = molecular target: T2, hUTII (Homo sapiens, UniProt Q9UKP6); assay: hUTII inhibition constant; type: binding; conditions: read-out: hUTII Ki
T2 sequence (Q9UKP6 1-389): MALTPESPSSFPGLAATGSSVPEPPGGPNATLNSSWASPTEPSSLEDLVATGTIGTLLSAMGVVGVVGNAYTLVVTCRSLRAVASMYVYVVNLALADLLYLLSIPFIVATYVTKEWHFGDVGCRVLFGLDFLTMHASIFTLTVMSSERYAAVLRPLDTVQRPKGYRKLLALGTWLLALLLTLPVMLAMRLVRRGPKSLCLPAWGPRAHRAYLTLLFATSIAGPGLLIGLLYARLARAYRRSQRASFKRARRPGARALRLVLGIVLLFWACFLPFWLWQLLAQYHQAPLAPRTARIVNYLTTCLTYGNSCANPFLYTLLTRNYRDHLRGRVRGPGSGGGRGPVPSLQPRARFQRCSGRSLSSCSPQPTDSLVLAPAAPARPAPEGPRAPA
Method: as §5

hsst2 = molecular target: T3, hsst2 (Homo sapiens, UniProt P30874); assay: Somatostatin receptor radioligand binding assay, hsst2; conditions: CHO-K1 membranes, [125I]MK-678; read-out: hsst2 Ki
T3 construct: expressed in transfected cells
T3 sequence (P30874 whole entry): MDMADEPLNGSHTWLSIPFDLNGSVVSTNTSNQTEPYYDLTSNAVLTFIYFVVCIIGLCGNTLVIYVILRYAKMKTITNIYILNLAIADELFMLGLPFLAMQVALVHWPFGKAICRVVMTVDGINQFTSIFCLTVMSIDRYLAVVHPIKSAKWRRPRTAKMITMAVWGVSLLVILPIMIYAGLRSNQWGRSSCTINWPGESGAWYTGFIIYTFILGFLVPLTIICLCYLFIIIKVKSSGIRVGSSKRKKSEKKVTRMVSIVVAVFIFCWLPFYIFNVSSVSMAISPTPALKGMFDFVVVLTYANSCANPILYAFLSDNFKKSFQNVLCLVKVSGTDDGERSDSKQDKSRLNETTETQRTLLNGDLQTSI
Method: as §1, §2, §4

hsst3 = molecular target: T4, hsst3 (Homo sapiens, UniProt P32745); assay: Somatostatin receptor radioligand binding assay, hsst3; conditions: CHO-K1 membranes, [125I-Tyr11]SS-14; read-out: hsst3 Ki
T4 construct: expressed in transfected cells
T4 sequence (P32745 whole entry): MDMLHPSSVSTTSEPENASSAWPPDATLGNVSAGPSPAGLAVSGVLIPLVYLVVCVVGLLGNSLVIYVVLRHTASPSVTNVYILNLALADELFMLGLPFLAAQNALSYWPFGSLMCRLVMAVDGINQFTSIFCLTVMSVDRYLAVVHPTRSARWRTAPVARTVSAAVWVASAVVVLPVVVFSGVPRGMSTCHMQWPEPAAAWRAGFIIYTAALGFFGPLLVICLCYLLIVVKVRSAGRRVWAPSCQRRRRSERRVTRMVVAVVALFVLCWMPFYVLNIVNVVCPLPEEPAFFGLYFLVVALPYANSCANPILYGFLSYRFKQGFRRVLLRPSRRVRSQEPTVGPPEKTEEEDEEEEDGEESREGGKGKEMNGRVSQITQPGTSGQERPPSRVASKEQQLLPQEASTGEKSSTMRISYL
Method: as §1, §2, §3, §4, §5

hsst5 = molecular target: T5, hsst5 (Homo sapiens, UniProt P35346); assay: Somatostatin receptor radioligand binding assay, hsst5; conditions: CHO-K1 membranes, [125I-Tyr11]SS-14; read-out: hsst5 Ki
T5 construct: expressed in transfected cells
T5 sequence (P35346 whole entry): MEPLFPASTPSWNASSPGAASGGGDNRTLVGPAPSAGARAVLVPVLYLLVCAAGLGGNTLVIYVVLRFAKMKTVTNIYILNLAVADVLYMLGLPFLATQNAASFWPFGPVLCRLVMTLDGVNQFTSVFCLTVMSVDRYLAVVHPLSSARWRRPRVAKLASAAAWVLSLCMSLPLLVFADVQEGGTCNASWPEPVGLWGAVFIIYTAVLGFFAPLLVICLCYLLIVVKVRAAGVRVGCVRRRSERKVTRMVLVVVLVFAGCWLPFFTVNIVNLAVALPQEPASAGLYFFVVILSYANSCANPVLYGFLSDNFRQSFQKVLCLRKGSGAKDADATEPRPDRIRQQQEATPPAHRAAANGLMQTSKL
Method: as §1, §2, §3, §4

SMILES | Ki (hsst1) [nM] | Ki (hDA2) [nM] | Ki (hUTII) [nM] | Ki (hsst2) [nM] | Ki (hsst3) [nM] | Ki (hsst5) [nM]
CCCN1C[C@H](CSCC(=O)N[C@H](Cc2ccccc2)C(=O)N[C@H]2CSSC[C@@H](C(=O)N[C@H](C(N)=O)[C@@H](C)O)NC(=O)[C@H](C(C)C)NC(=O)[C@H](CCCCN)NC(=O)[C@@H](Cc3c[nH]c4ccccc34)NC(=O)[C@H](Cc3ccc(OC(=O)CSC[C@@H]4C[C@@H]5c6cccc7[nH]cc(c67)C[C@H]5N(CCC)C4)c(I)c3)NC2=O)C[C@@H]2c3cccc4[nH]cc(c34)C[C@H]21 [Example 3] | 1000 | 16.7 | 73.5 | 0.37 | 235 | 
CCCN1C[C@H](CSCC(=O)N[C@H](Cc2ccccc2)C(=O)NCCOCCOCC(=O)N[C@H](Cc2ccccc2)C(=O)N[C@H]2CSSC[C@@H](C(=O)N[C@H](C(N)=O)[C@@H](C)O)NC(=O)[C@H](C(C)C)NC(=O)[C@H](CCCCN)NC(=O)[C@@H](Cc3c[nH]c4ccccc34)NC(=O)[C@H](Cc3ccc(O)c(I)c3)NC2=O)C[C@@H]2c3cccc4[nH]cc(c34)C[C@H]21 [Example 4] | 1000 | 29.6 | 83.7 | 0.84 | 397 | 
CCCN1C[C@H](CSCC(=O)N[C@H](Cc2ccccc2)C(=O)NCCOCCOCC(=O)N[C@H](Cc2ccccc2)C(=O)N[C@H]2CSSC[C@@H](C(=O)N[C@H](C(N)=O)[C@@H](C)O)NC(=O)[C@H](C(C)C)NC(=O)[C@H](CCCCN)NC(=O)[C@@H](Cc3c[nH]c4ccccc34)NC(=O)[C@H](Cc3ccc(OC(=O)CSC[C@@H]4C[C@@H]5c6cccc7[nH]cc(c67)C[C@H]5N(CCC)C4)c(I)c3)NC2=O)C[C@@H]2c3cccc4[nH]cc(c34)C[C@H]21 [Example 5] (X1-[dF][AEEA][dF]C[X3][dW]KVCT-NH2; disulfide 4-9) | 1000 | 15.5 | 105 | 1.65 | 1050 | 27.6
C=CCN1C[C@H](C(=O)N(CCCN(C)CC(=O)N[C@H](Cc2ccccc2)C(=O)N[C@H]2CSSC[C@@H](C(=O)N[C@H](C(N)=O)[C@@H](C)O)NC(=O)[C@H](CC)NC(=O)[C@H](CCCCN)NC(=O)[C@@H](Cc3c[nH]c4ccccc34)NC(=O)[C@H](Cc3ccc(O)cc3)NC2=O)C(=O)NCC)C[C@@H]2c3cccc4[nH]cc(c34)C[C@H]21 [Example 6] | 509 | 65 | 677 | 0.51 | 798 | 56.5
CCNC(=O)N(CCCN(C)CC(=O)N[C@H](Cc1ccccc1)C(=O)N[C@H]1CSSC[C@@H](C(=O)N[C@H](C(N)=O)[C@@H](C)O)NC(=O)[C@H](CC)NC(=O)[C@H](CCCCN)NC(=O)[C@@H](Cc2c[nH]c3ccccc23)NC(=O)[C@H](Cc2ccc(O)cc2)NC1=O)C(=O)[C@H]1CN[C@@H]2Cc3c[nH]c4cccc(c34)[C@H]2C1 [Example 7] | 345 | 193 | 695 | 0.19 | 267 | 28.6
CCCN1C[C@H](CSCC(=O)NCCOCCOCC(=O)N[C@H](Cc2ccccc2)C(=O)N[C@H]2CSSC[C@@H](C(=O)N[C@H](C(N)=O)[C@@H](C)O)NC(=O)[C@H](CC)NC(=O)[C@H](CCCCN)NC(=O)[C@@H](Cc3c[nH]c4ccccc34)NC(=O)[C@H](Cc3ccc(O)cc3)NC2=O)C[C@@H]2c3cccc4[nH]cc(c34)C[C@H]21 [Example 8] | 1550 | 86 | 167 | 0.11 | 126 | 24.5
CCCN1C[C@H](CSCC(=O)N[C@H](Cc2ccccc2)C(=O)N[C@H]2CSSC[C@@H](C(=O)N[C@H](C(N)=O)[C@@H](C)O)NC(=O)[C@H]([C@@H](C)O)NC(=O)[C@H](CCCCN)NC(=O)[C@@H](Cc3c[nH]c4ccccc34)NC(=O)[C@H](Cc3ccc(O)c(I)c3)NC2=O)C[C@@H]2c3cccc4[nH]cc(c34)C[C@H]21 [Example 12] | 602 | 25.2 | 676 |  | 51.5 | 4.1
CCCN1C[C@H](CSCC(=O)NCCCC[C@@H](NC(=O)CSC[C@@H]2C[C@@H]3c4cccc5[nH]cc(c45)C[C@H]3N(CCC)C2)C(=O)N[C@H](Cc2ccccc2)C(=O)N[C@H]2CSSC[C@@H](C(=O)N[C@H](C(N)=O)[C@@H](C)O)NC(=O)[C@H]([C@@H](C)O)NC(=O)[C@H](CCCCN)NC(=O)[C@@H](Cc3c[nH]c4ccccc34)NC(=O)[C@H](Cc3ccc(O)c(I)c3)NC2=O)C[C@@H]2c3cccc4[nH]cc(c34)C[C@H]21 [Example 13] | 907 | 15.2 |  |  | 196 | 10.7
CCCN1C[C@H](CSCC(=O)NCCCC[C@@H](NC(C)=O)C(=O)N[C@H](Cc2ccccc2)C(=O)N[C@H]2CSSC[C@@H](C(=O)N[C@H](C(N)=O)[C@@H](C)O)NC(=O)[C@H]([C@@H](C)O)NC(=O)[C@H](CCCCN)NC(=O)[C@@H](Cc3c[nH]c4ccccc34)NC(=O)[C@H](Cc3ccc(O)c(I)c3)NC2=O)C[C@@H]2c3cccc4[nH]cc(c34)C[C@H]21 [Example 14] | 1340 | 44.3 | 1510 |  | 70.3 | 2.68
CCCN1C[C@H](CSCC(=O)NCCN2CCN(CC(=O)N[C@H](Cc3ccccc3)C(=O)N[C@H]3CSSC[C@@H](C(=O)N[C@H](C(N)=O)[C@@H](C)O)NC(=O)[C@H](C(C)C)NC(=O)[C@H](CCCCN)NC(=O)[C@@H](Cc4c[nH]c5ccccc45)NC(=O)[C@H](Cc4ccc(O)c(I)c4)NC3=O)CC2)C[C@@H]2c3cccc4[nH]cc(c34)C[C@H]21 [Example 25] | 1000 | 345 | 233 | 1.09 | 423 | 
CCCN1C[C@H](CSCC(=O)N[C@H](Cc2ccccc2)C(=O)N[C@H]2CSSC[C@@H](C(=O)N[C@H](C(N)=O)[C@@H](C)O)NC(=O)[C@H](C(C)C)NC(=O)[C@H](CCCCN)NC(=O)[C@@H](Cc3c[nH]c4ccccc34)NC(=O)[C@H](Cc3ccc(O)c(I)c3)NC2=O)C[C@@H]2c3cccc4[nH]cc(c34)C[C@H]21 [Example 26] | 731 | 34 | 53.2 | 0.4 | 135 | 
